Earlier results on one compound are cited in patent US11707455B2, “Pharmaceutical composition containing dabigatran etexilate and preparation method thereof” (SHANGHAI WD PHARMACEUTICAL CO., LTD, priority 2018, dated 2023).

The conditions of data set [1]: in vivo.
The conditions of data set [2]: pH 1.

With `CCCCCCOC(=O)N=C(N)c1ccc(NCc2nc3cc(C(=O)N(CCC(=O)OCC)c4ccccn4)ccc3n2C)cc1.CS(=O)(=O)O` [DEM], in data set [1], the Cmax variation range was not above 5 folds. The maximum solubility result in data set [2] is on record as “greater than 80 mg/mL”.
